Test results reported in US20250215029A1 (Recludix Pharma, Inc., priority 2022, published 2025).
Read-outs that look alike come from different tables or passages of the source.

Tests used:
[1] = target: T1, Recombinant STAT3 protein (STAT3 (G127-I722)) (Homo sapiens, UniProt P40763); assay: STAT3 Fluorescence Polarization (FP) Assay; type: binding; conditions: probe 5-FAM-GpYLPQTV-NH2 2 nM, 45-minute incubation
T1 construct: Recombinant STAT3 protein (STAT3 (G127-I722))
Procedure: STAT3 Fluorescence Polarization (FP) Assay
An FP assay was developed to determine IC50 values for test substances. Recombinant STAT3 protein (STAT3 (G127-I722)) at 25 nM was combined with a fluorescently labeled, phosphotyrosine peptide probe (5-FAM-GpYLPQTV-NH2) at 2 nM in FP buffer (10 mM HEPES pH 7.4, 50 mM NaCl, 1 mM EDTA, 0.05% Tween 20.2 mM DTT). 50 μL of STAT3-probe mixture was added to serial diluted compounds in black, 96-well plates (Greiner BioOne 655076) to a final concentration of 1% DMSO. Reaction components were mixed, and FP was measured after 45-minute incubation at room temperature using a Tecan Spark multimode plate reader. FP signal (mP) was plotted against the log concentration of the test substances and IC50 values were calculated by nonlinear regression analysis using GraphPad Prism software. For STAT3 FP assay, A=≤100 nM; B=>100-1000 nM; C=>1-10 μM; and D=>10 μM.

[2] = target: T2, Recombinant STAT6 protein (STAT6 (W123-T658)) (Homo sapiens, UniProt P42226); assay: STAT6 Fluorescence Polarization (FP) Assay; type: binding; conditions: probe 5-FAM-Ap[…]-NH2 2 nM, 45-minute incubation
T2 construct: Recombinant STAT6 protein (STAT6 (W123-T658))
T2 sequence (P42226 123-658): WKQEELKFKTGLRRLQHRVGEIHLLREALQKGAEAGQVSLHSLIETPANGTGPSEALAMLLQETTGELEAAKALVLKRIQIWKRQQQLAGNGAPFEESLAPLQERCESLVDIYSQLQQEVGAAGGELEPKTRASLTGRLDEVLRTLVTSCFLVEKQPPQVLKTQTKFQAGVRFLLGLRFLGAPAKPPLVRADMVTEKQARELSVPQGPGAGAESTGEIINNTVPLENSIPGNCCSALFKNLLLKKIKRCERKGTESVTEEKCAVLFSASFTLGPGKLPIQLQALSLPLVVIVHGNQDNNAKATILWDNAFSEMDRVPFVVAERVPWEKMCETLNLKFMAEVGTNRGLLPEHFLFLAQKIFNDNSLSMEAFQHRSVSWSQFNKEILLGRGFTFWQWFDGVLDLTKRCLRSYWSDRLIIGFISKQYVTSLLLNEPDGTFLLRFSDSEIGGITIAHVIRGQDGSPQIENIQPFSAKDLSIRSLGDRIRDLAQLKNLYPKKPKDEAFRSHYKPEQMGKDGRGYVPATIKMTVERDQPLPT
Procedure: STAT6 Fluorescence Polarization (FP) Assay
An FP assay was developed to determine IC50 values for test substances. Recombinant STAT6 protein (STAT6 (W123-T658)) at 250 nM was combined with a fluorescently labeled, phosphotyrosine peptide probe (5-FAM-Ap[…]-NH2) at 2 nM in FP buffer (10 mM HEPES pH 7.4, 50 mM NaCl, 1 mM EDTA, 0.05% Tween 20, 2 mM DTT). 50 μL of STAT6-probe mixture was added to serial diluted compounds in black, 96-well plates (Greiner BioOne 655076) to a final concentration of 1% DMSO. Reaction components were mixed, and FP was measured after 45-minute incubation at room temperature using a Tecan Spark multimode plate reader. FP signal (mP) was plotted against the log concentration of the test substances and IC50 values were calculated by nonlinear regression analysis using GraphPad Prism software. For STAT6 FP assay, A=≤300 nM; B=>300-3000 nM; C=>3-30 μM; and D=>30 μM.

[3] = STAT3 25 nM, read-out: STAT3 (FP assay IC50)
[4] = STAT6 250 nM, read-out: STAT6 (FP assay IC50)
[5] = STAT3 (G127-I722) 25 nM, read-out: STAT3 (FP assay IC50 class)
[6] = STAT6 (W123-T658) 250 nM, read-out: STAT6 (FP assay IC50 class)

T1 sequence (P40763 127-722): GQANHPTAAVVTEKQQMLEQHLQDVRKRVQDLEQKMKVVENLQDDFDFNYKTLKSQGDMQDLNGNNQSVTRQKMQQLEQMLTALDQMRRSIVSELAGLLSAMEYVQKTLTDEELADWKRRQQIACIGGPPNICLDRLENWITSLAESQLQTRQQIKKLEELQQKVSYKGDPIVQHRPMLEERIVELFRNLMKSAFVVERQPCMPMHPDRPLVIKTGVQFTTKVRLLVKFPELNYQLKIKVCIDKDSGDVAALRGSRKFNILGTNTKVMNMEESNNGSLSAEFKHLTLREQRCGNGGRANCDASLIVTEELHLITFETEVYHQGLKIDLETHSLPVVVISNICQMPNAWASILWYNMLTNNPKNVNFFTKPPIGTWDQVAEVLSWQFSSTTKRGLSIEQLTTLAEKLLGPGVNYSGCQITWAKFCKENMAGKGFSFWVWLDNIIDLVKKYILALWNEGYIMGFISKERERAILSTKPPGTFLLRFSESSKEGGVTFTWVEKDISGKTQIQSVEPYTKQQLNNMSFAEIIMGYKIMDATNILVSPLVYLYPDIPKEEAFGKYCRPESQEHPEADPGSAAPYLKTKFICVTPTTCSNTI

| SMILES | IC50 [1, 3] [µM] | IC50 [2, 4] [µM] | IC50 [1, 5] [µM] | IC50 [2, 6] [µM] |
| --- | --- | --- | --- | --- |
| N#C[C@H]1CN(C(=O)[C@@H]2CC[C@@H]3CC[C@@H](N4CCC4)C[C@H](NC(=O)c4cc5cc(C(F)(F)P(=O)(O)O)ccc5s4)C(=O)N32)C[C@@H]1c1ccccc1 (mixture of isomers) [Compound 23, ((2-(((3S,6S,8R,10aS)-8-(azetidin-1-yl)-3-(rel- trans)-3-cyano-4-phenylpyrrolidine-1-carbonyl)-5-oxodecahydropyrrolo [1,2-a]azocin-6-yl)carbamoyl)benzo[b]thiophen-5-yl)difluoromethyl) phosphonic acid] | 1 to 10 | 0.3 to 3 |  |  |
| N#C[C@H]1CN(C(=O)[C@@H]2CC[C@@H]3CCCC[C@H](NC(=O)c4ccc5ccc(C(F)(F)P(=O)(O)O)cc5c4)C(=O)N32)C[C@@H]1c1ccccc1 (mixture of isomers) [Compound 28, ((7-(((3S,6S,10aS)-3-(rel- trans)-3-cyano-4-phenylpyrrolidine-1-carbonyl)-5-oxodecahydropyrrolo [1,2-a]azocin-6-yl)carbamoyl)naphthalen-2-yl) difluoromethyl) phosphonic acid] | 1 to 10 | ≤ 0.3 |  |  |
| N#C[C@@H]1CN(C(=O)[C@@H]2CC[C@@H]3CCCCC[C@H](NC(=O)c4cc5cc(C(F)(F)P(=O)(O)O)ccc5s4)C(=O)N32)C[C@H]1c1ccccc1 (mixture of isomers) [Compound 74, ((2-(((3S,6S,11aS)-3-((rel- trans)-3-cyano-4-phenylpyrrolidine-1-carbonyl)-5-oxodecahydro-1H-pyrrolo[1,2-a]azonin-6-yl)carbamoyl)benzo[b]thiophen-5-yl)difluoromethyl) phosphonic acid] | 1 to 10 | ≤ 0.3 |  |  |
| N#CC1CN(C(=O)[C@@H]2C[C@@H](O)[C@@H]3C/C=C\C[C@H](NC(=O)c4cc5cc(C(F)(F)P(=O)(O)O)ccc5s4)C(=O)N23)CC1c1ccccc1 (mixture of isomers) [Compound 729, ((2-(((1R,3S,6S,10aS,Z)-3-((rel-trans)-3-cyano-4-phenylpyrrolidine-1-carbonyl)-1-hydroxy-5-oxo-1,2,3,5,6,7,10,10a-octahydropyrrolo[1,2-a]azocin-6-yl)carbamoyl)benzo [b]thiophen-5-yl)difluoromethyl) phosphonic acid] |  |  | 0.1 to 1 | ≤ 0.3 |
| O=C(NC1CCCCC2CCC(C(=O)N3CC(O)C(n4ccnn4)C3)N2C1=O)c1ccc2ccc(C(F)(F)P(=O)(O)O)cc2c1 (mixture of isomers) [Compound 871, (difluoro(7-(((3S,6S,10aS)-3-((rel-trans)-3-hydroxy-4-(1H-1,2,3-triazol-1-yl)pyrrolidine-1-carbonyl)-5-oxodecahydropyrrolo[1,2-a]azocin-6-yl)carbamoyl)naphthalen-2-yl)methyl) phosphonic acid] |  |  | 1 to 10 | 0.3 to 3 |
| COc1cc(C2CN(C(=O)C3CCC4CCCCC(NC(=O)c5cc6cc(C(F)(F)P(=O)(O)O)ccc6s5)C(=O)N43)CC2C#N)cc(C)n1 (mixture of isomers) [Compound 874, ((2-(((3S,6S,10aS)-3-((rel-trans)-3-cyano-4-(2-methoxy-6-methylpyridin-4-yl)pyrrolidine-1-carbonyl)-5-oxodecahydropyrrolo[1,2-a]azocin-6-yl)carbamoyl)benzo [b]thiophen-5-yl)difluoromethyl) phosphonic acid] |  |  | 1 to 10 | 0.3 to 3 |
| N#C[C@@H]1CN(C(=O)[C@@H]2CCC[C@@H]3CCCC[C@H](NC(=O)c4cc5cc(C(F)(F)P(=O)(O)O)ccc5s4)C(=O)N32)CC1c1ccccc1 (mixture of isomers) [Compound 63, ((2-(((4S,7S,11aS)-4-(rel-(trans)-3-cyano-4-phenylpyrrolidine-1-carbonyl)-6-oxodecahydro-2H-pyrido[1,2-a]azocin-7-yl)carbamoyl)benzo[b]thiophen-5-yl)difluoromethyl) phosphonic acid] | 0.1 to 1 | ≤ 0.3 |  |  |
| N#C[C@H]1CN(C(=O)[C@@H]2CC[C@@H]3CCCCC[C@H](NC(=O)c4cc5cc(C(F)(F)P(=O)(O)O)ccc5s4)C(=O)N32)C[C@@H]1c1ccccc1 (racemic) [Compound 75, ((2-(((3S,6S,11aS)-3-(rel-(trans)-3-cyano-4-phenylpyrrolidine-1-carbonyl)-5-oxodecahydro-1H-pyrrolo[1,2-a]azonin-6-yl)carbamoyl)benzo[b]thiophen-5-yl)difluoromethyl) phosphonic acid] | 1 to 10 | ≤ 0.3 |  |  |
| N#C[C@H]1CN(C(=O)[C@@H]2CC[C@@H]3CCCC[C@H](NC(=O)c4cc5cc(C(F)(F)P(=O)(O)O)ccc5s4)C(=O)N32)C[C@@H]1CC1CCOCC1 (racemic) [Compound 88, ((2-(((3S,6S,10aS)-3-(rel-(trans)-3-cyano-4-((tetrahydro-2H-pyran-4-yl)methyl)pyrrolidine-1-carbonyl)-5-oxodecahydropyrrolo [1,2-a]azocin-6-yl)carbamoyl)benzo[b]thiophen-5-yl)difluoromethyl) phosphonic acid] | 1 to 10 | 0.3 to 3 |  |  |
| N#C[C@H]1CN(C(=O)[C@@H]2CC[C@@H]3CCCC[C@H](NC(=O)c4cc5cc(C(F)(F)P(=O)(O)O)ccc5s4)C(=O)N32)C[C@@H]1C1CCCCC1 (racemic) [Compound 91, ((2-(((3S,6S,10aS)-3-(rel-(trans)-3-cyano-4-cyclohexyl-pyrrolidine-1-carbonyl)-5-oxodecahydropyrrolo [1,2-a]azocin-6-yl)carbamoyl)benzo[b]thiophen-5-yl)difluoromethyl) phosphonic acid] | 1 to 10 | ≤ 0.3 |  |  |
| N#C[C@H]1CN(C(=O)[C@@H]2CC[C@@H]3CCCC[C@H](NC(=O)c4cc5cc(C(F)(F)P(=O)(O)O)ccc5s4)C(=O)N32)C[C@@H]1c1ccc2cn[nH]c2c1 (racemic) [Compound 99, ((2-(((3S,6S,10aS)-3-(rel-(trans)-3-cyano-4-(1H-indazol-6-yl)pyrrolidine-1-carbonyl)-5-oxodecahydropyrrolo [1,2-a]azocin-6-yl)carbamoyl)benzo[b]thiophen-5-yl)difluoromethyl) phosphonic acid] | 0.1 to 1 | 0.3 to 3 |  |  |
| COc1cccc([C@H]2CN(C(=O)[C@@H]3CC[C@@H]4CCCC[C@H](NC(=O)c5cc6cc(C(F)(F)P(=O)(O)O)ccc6s5)C(=O)N43)C[C@@H]2C#N)n1 (racemic) [Compound 105, ((2-(((3S,6S,10aS)-3-(rel-(trans) 3-cyano-4-(6-methoxypyridin-2-yl)pyrrolidine-1-carbonyl)-5-oxodecahydropyrrolo [1,2-a]azocin-6-yl)carbamoyl)benzo[b]thiophen-5-yl)difluoromethyl) phosphonic acid] | 0.1 to 1 | ≤ 0.3 |  |  |
| N#C[C@@H]1CN(C(=O)[C@@H]2CC[C@@H]3C[C@@H](N4CCC4)CC[C@H](NC(=O)c4cc5cc(C(F)(F)P(=O)(O)O)ccc5s4)C(=O)N32)C[C@H]1c1ccccc1 (relative stereo) [Compound 21, ((2-(((3S,6S,9S,10aR)-9-(azetidin-1-yl)-3-(rel-(trans)-3-cyano-4-phenylpyrrolidine-1-carbonyl)-5-oxodecahydropyrrolo [1,2-a]azocin-6-yl)carbamoyl)benzo[b]thiophen-5-yl)difluoromethyl) phosphonic acid] | 1 to 10 | ≤ 0.3 |  |  |
